Laboratory results from ChEMBL document CHEMBL6083193, “Advancing drug discovery: Thiadiazole derivatives as multifaceted agents in medicinal chemistry and pharmacology” (Bioorg Med Chem, 2024).
In brackets after ≈: the same amount, converted by molar mass. Values belong to the compound of their own block, whether it stands above or below them.

How the values were obtained:
Toxoplasma gondii = assay: Antiparasitic activity against Toxoplasma gondii RH infected in human HFF cells; type: functional, organism-based
Mus musculus = assay: Antiinflammatory activity against carrageenan-induced paw edema in Swiss mouse assessed as reduction in paw edema at 15 mg/kg, po relative to control; type: functional; parameters: scale not given: the % may be the effect or the level left
[1] = Inhibition of Alpha-amylase (unknown origin); parameters: species or system Homo sapiens
Alpha glucosidase = Alpha glucosidase (Homo sapiens, UniProt O43451+P10253+P14410+Q2M2H8); assay: Inhibition of Alpha-glucosidase (unknown origin); type: protein assay
[2] = Antioxidant activity assessed as DPPH radical scavenging activity measured for 30 mins by spectrophotometric analysis; type: functional
A549 [3] = assay: Anticancer activity against human A549 cells by MTT assay; type: functional, cell-based
COLO 205 [4] = assay: Anticancer activity against human COLO 205 cells by MTT assay; type: functional, cell-based
MCF7 [5] = assay: Anticancer activity against human MCF7 cells by MTT assay; type: functional, cell-based
A2780 [6] = assay: Anticancer activity against human A2780 cells by MTT assay; type: functional, cell-based
MCF7 [7] = assay: Cytotoxicity against human MCF7 cells assessed as reduction in cell viability by MTT assay; type: functional, cell-based
COLO 205 [8] = assay: Cytotoxicity against human COLO 205 cells assessed as reduction in cell viability by MTT assay; type: functional, cell-based
A549 [9] = assay: Cytotoxicity against human A549 cells assessed as reduction in cell viability by MTT assay; type: functional, cell-based
A2780 [10] = assay: Cytotoxicity against human A2780 cells assessed as reduction in cell viability by MTT assay; type: functional, cell-based
A549 [11] = assay: Cytotoxicity against human A549 cells assessed as reduction in cell growth; type: functional, cell-based
[12] = Inhibition of alpha amylase (unknown origin) using starch as substrate pre-incubated for 30 mins followed by substrate addition and measured after 30 mins by absorbance based analysis; parameters: species or system Homo sapiens

Compound: Cc1nc[nH]c1-c1nnc(Nc2cccc(I)c2)s1
IC50 (Toxoplasma gondii): 4.7 µg/mL (≈ 12.3 µM)

Compound: O=C1N/C(=N\c2nnc(C34CC5CC(CC(C5)C3)C4)s2)S/C1=C\c1ccccc1
Activity (Mus musculus): 66.7%

IC50 [1]: 1.3 µM
IC50 (Alpha glucosidase): 2.2 µM
Compound: O=[N+]([O-])c1cccc(NC(=S)Nc2nsc(Nc3cccc([N+](=O)[O-])c3)n2)c1

Compound: Cc1ccc(/C=C2\S/C(=N/c3nnc(C45CC6CC(CC(C6)C4)C5)s3)NC2=O)cc1
Activity (Mus musculus): 66.7%

Compound: O=C1N/C(=N\c2nnc(C34CC5CC(CC(C5)C3)C4)s2)S/C1=C\c1ccc(O)cc1
Activity (Mus musculus): 66.7%

Compound: COc1ccc(/C=C2\S/C(=N/c3nnc(C45CC6CC(CC(C6)C4)C5)s3)NC2=O)cc1
Activity (Mus musculus): 66.7%

Compound: O=C1N/C(=N\c2nnc(C34CC5CC(CC(C5)C3)C4)s2)S/C1=C\c1ccccc1[N+](=O)[O-]
Activity (Mus musculus): 66.7%

IC50 [2]: 22.63 µg/mL (≈ 62.2 µM)
Compound: O=C(CCl)Nc1nn(-c2ccccc2)nc1C(=O)Nc1nncs1

Compound: Cc1nc[nH]c1-c1nnc(Nc2cccc(Br)c2)s1
IC50 (Toxoplasma gondii): 4.7 µg/mL (≈ 14 µM)

IC50 (A549 [3]): 0.11 µM
IC50 (COLO 205 [4]): 0.11 µM
IC50 (MCF7 [5]): 0.11 µM
IC50 (A2780 [6]): 0.11 µM
Compound: Cc1cc(C)cc(NC(=O)c2ccc(-c3nsc(-c4csc(-c5ccncc5)n4)n3)cc2)c1

IC50 (A549 [3]): 0.11 µM
IC50 (COLO 205 [4]): 0.11 µM
IC50 (MCF7 [5]): 0.11 µM
IC50 (A2780 [6]): 0.11 µM
Compound: COc1cc(NC(=O)c2ccc(-c3nsc(-c4csc(-c5ccncc5)n4)n3)cc2)cc(OC)c1OC
IC50 (MCF7 [7]): 0.34 µM
IC50 (COLO 205 [8]): 0.12 µM
IC50 (A549 [9]): 0.11 µM
IC50 (A2780 [10]): 0.14 µM

Compound: CCCNc1nnc(SCC(=O)N2N=C(c3ccccc3)CC2c2ccc([N+](=O)[O-])cc2)s1 (centres undefined)
IC50 (A549 [11]): 10 µM

IC50 [2]: 22.63 µg/mL (≈ 46.3 µM)
Compound: Cc1ccc(/C=C2\S/C(=N\c3nn(-c4ccccc4)nc3C(=O)Nc3nncs3)NC2=O)cc1

Compound: CCNc1nnc(SCC(=O)N2N=C(c3ccccc3)CC2c2ccc([N+](=O)[O-])cc2)s1 (centres undefined)
IC50 (A549 [11]): 10 µM

Compound: O=C1N/C(=N\c2nnc(C34CC5CC(CC(C5)C3)C4)s2)S/C1=C\c1cccc(Cl)c1Cl
Activity (Mus musculus): 66.7%

IC50 [1]: 1.3 µM
IC50 (Alpha glucosidase): 2.2 µM
Compound: O=[N+]([O-])c1ccccc1NC(=S)Nc1nsc(Nc2ccc(Cl)c(Cl)c2)n1

Compound: O=C1N/C(=N\c2nnc(C34CC5CC(CC(C5)C3)C4)s2)S/C1=C\c1ccc(F)cc1
Activity (Mus musculus): 66.7%

IC50 [2]: 37.25 µg/mL (≈ 137 µM)
Compound: N#C/C(=N\Nc1ccccc1)C(=O)Nc1nncs1

IC50 [1]: 1.3 µM
IC50 (Alpha glucosidase): 2.2 µM
Compound: O=[N+]([O-])c1ccc(NC(=S)Nc2nsc(Nc3ccc(Cl)cc3)n2)cc1

IC50 [1]: 1.3 µM
IC50 (Alpha glucosidase): 2.2 µM
Compound: O=[N+]([O-])c1ccccc1NC(=S)Nc1nsc(Nc2cccc(C(F)(F)F)c2)n1

Compound: Cc1[nH]cnc1-c1nnc(Nc2ccc(F)cc2)s1
IC50 (Toxoplasma gondii): 4.7 µg/mL (≈ 17.1 µM)

Compound: Cc1nc[nH]c1-c1nnc(Nc2ccccc2Cl)s1
IC50 (Toxoplasma gondii): 4.7 µg/mL (≈ 16.1 µM)

IC50 [2]: 22.63 µg/mL (≈ 44.9 µM)
Compound: COc1ccc(/C=C2\S/C(=N\c3nn(-c4ccccc4)nc3C(=O)Nc3nncs3)NC2=O)cc1

Compound: CC(C)Nc1nnc(SCC(=O)N2N=C(c3ccccc3)CC2c2ccc([N+](=O)[O-])cc2)s1 (centres undefined)
IC50 (A549 [11]): 10 µM

IC50 [12]: 36.1 µM
Compound: O=C(NC1=NN2C(=O)CN=C2S1)c1cccs1

IC50 [1]: 1.3 µM
IC50 (Alpha glucosidase): 2.2 µM
Compound: S=C(Nc1ccc(Cl)c(Cl)c1)Nc1nsc(Nc2ccc(Cl)c(Cl)c2)n1

IC50 [2]: 44.35 µg/mL (≈ 115 µM)
Compound: O=C1CS/C(=N\c2nn(-c3ccccc3)nc2C(=O)Nc2nncs2)N1

Compound: O=C1N/C(=N\c2nnc(C34CC5CC(CC(C5)C3)C4)s2)S/C1=C\c1c(Cl)cccc1Cl
Activity (Mus musculus): 66.7%

IC50 [12]: 36.1 µM
Compound: O=C(NC1=NN2C(=O)/C(=C/C3CCCO3)N=C2S1)c1cccs1 (centres undefined)

IC50 [2]: 22.63 µg/mL (≈ 44.5 µM)
Compound: O=C1N/C(=N/c2nn(-c3ccccc3)nc2C(=O)Nc2nncs2)S/C1=C\c1ccc(Cl)cc1

Compound: Cc1[nH]cnc1-c1nnc(Nc2ccc(Cl)cc2)s1
IC50 (Toxoplasma gondii): 4.7 µg/mL (≈ 16.1 µM)

IC50 [1]: 1.3 µM
IC50 (Alpha glucosidase): 2.2 µM
Compound: S=C(Nc1ccc(Br)cc1)Nc1nsc(Nc2ccc(Cl)cc2)n1

IC50 [1]: 1.3 µM
IC50 (Alpha glucosidase): 2.2 µM
Compound: Fc1ccccc1NC(=S)Nc1nsc(Nc2ccc(Cl)c(Cl)c2)n1

IC50 [12]: 36.1 µM
Compound: N=c1cc(N)nc2sc(NC(=O)c3cccs3)nn12

Compound: Cc1nc[nH]c1-c1nnc(Nc2ccccc2I)s1
IC50 (Toxoplasma gondii): 4.7 µg/mL (≈ 12.3 µM)

IC50 [1]: 1.3 µM
IC50 (Alpha glucosidase): 2.2 µM
Compound: O=[N+]([O-])c1cccc(Nc2nc(NC(=S)Nc3ccc(Cl)cc3Cl)ns2)c1
